pIC50: −log10 of the molar value.
Each compound was assayed on T1, purified human Hsp90 (assay: Hsp90 binding assay: displacement of BODIPY-labeled geldanamycin measured by fluorescence polarization). Details: 5 μM compound; BODIPY-GM 10 nM, Hsp90 30 nM, overnight at room temperature.
T1 construct: purified human Hsp90 (Stressgen, SPP-770)
Outline: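 Fluorescence polarization measured displacement of BODIPY-geldanamycin (10 nM) from purified human Hsp90 (30 nM). The buffer was HEPES-KOH pH 7.3 with molybdate, NP-40, gamma globulin and DTT, 2% DMSO, overnight at room temperature, ex/em 485/530 nm. % inhibition was calculated against DMSO controls, and points confounded by compound fluorescence were excluded.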

| Compound | GM displacement from purified Hsp90 measured by FP Inhibition by 5 μM compd. (%) |
| --- | --- |
| CS(=O)(=O)N1CCCC(CCn2cnc(N)c3nc(Sc4cc5c(cc4Br)OCCO5)nc2-3)C1 (stereo not drawn) [compound 13, 8-[(7-Bromo-2,3-dihydro-1,4-benzodioxin-6-yl)thio]-3-{2-[1-(methylsulfonyl)piperidin-3-yl]ethyl}-3H-purin-6-amine] | 38.0 |
| CCCN1CCCCC1CCn1cnc(N)c2nc(Sc3cc4c(cc3Br)OCCO4)nc1-2 (stereo not drawn) [compound 16, 8-[(7-Bromo-2,3-dihydro-1,4-benzodioxin-6-yl)thio]-3-[2-(1-propylpiperidin-2-yl)ethyl]-3H-purin-6-amine] | 73.0 |
| CS(=O)(=O)N1CCC(CCn2cnc(N)c3nc(Sc4cc5c(cc4Br)OCCO5)nc2-3)CC1 [compound 17, 8-[(7-Bromo-2,3-dihydro-1,4-benzodioxin-6-yl)thio]-3-{2-[1-(methylsulfonyl)piperidin-4-yl]ethyl}-3H-purin-6-amine] | 33.0 |
| COc1ccc(Br)c(Sc2nc3c(N)ncn(CCC4CCN(C(C)=O)CC4)c-3n2)c1 [compound 19, 3-[2-(1-Acetylpiperidin-4-yl)ethyl]-8-[(2-bromo-5-methoxyphenyl)thio]-3H-purin-6-amine] | 10.0 |
| Cn1nnnc1N1CCC(CCn2cnc(N)c3nc(Sc4cc5c(cc4Br)OCCO5)nc2-3)CC1 [compound 22, 8-[(7-Bromo-2,3-dihydro-1,4-benzodioxin-6-yl)thio]-3-{2-[1-(1-methyl-1H-tetrazol-5-yl)piperidin-4-yl]ethyl}-3H-purin-6-amine] | 46.0 |
| CC(C)C(=O)N1CCC(CCn2cnc(N)c3nc(Sc4cc5c(cc4Br)OCCO5)nc2-3)CC1 [compound 24, 8-[(7-Bromo-2,3-dihydro-1,4-benzodioxin-6-yl)thio]-342-(1-isobutyrylpiperidin-4-ypethyl]-3H-purin-6-amine] | 28.0 |
| CC(C)C(=O)N1CCC(CCn2cnc(N)c3nc(Sc4cc5c(cc4Br)OCO5)nc2-3)CC1 [compound 26, 8-[(6-Bromo-1,3-benzodioxol-5-yl)thio]-3-[2-(1-isobutyrylpiperidin-4-yl)ethyl]-3H-purin-6-amine] | 55.0 |
| CCN(CC)C(=O)CN1CCC(CCn2cnc(N)c3nc(Sc4cc5c(cc4Br)OCCO5)nc2-3)CC1 [compound 28, 2-[4-(2-{6-Amino-8-[(7-bromo-2,3-dihydro-1,4-benzodioxin-6-yl)thio]-3H-purin-3-yl}ethyl)piperidin-1-yl]-N,N-diethylacetamide] | 40.0 |
| Nc1ncn(CCn2c(=O)n3n(c2=O)CC=CC3)c2nc(Sc3cc4c(cc3Br)OCO4)nc1-2 [compound 30, 2-(2-{6-Amino-8-[(6-bromo-1,3-benzodioxol-5-yl)thio]-3H-purin-3-yl}ethyl)-5,8-dihydro-1H-[1,2,4]triazolo[1,2-a]pyridazine-1,3(2H)-dione] | 23.0 |
| N#CCCN1CCC(CCn2cnc(N)c3nc(Sc4cc5c(cc4Br)OCO5)nc2-3)CC1 [compound 32] | 9.0 |
| COCC(=O)N1CCC(CCn2cnc(N)c3nc(Sc4cc5c(cc4C#N)OCO5)nc2-3)CC1 [compound 34, 6-[(6-Amino-3-{2-[1-(methoxyacetyl)piperidin-4-yl]ethyl}-3H-purin-8-yl)thio]-1,3-benzodioxole-5-carbonitrile] | 88.0 |
| CO[C@H](C)C(=O)N1CCC(CCn2cnc(N)c3nc(Sc4cc5c(cc4C#N)OCO5)nc2-3)CC1 [compound 36, 6-{[6-Amino-3-(2-{1-[(2R)-2-methoxypropanoyl]piperidin-4-yl}ethyl)-3H-purin-8-yl]thio}-1,3-benzodioxole-5-carbonitrile] | 35.0 |
| CO[C@@H](C)C(=O)N1CCC(CCn2cnc(N)c3nc(Sc4cc5c(cc4C#N)OCO5)nc2-3)CC1 [compound 38, 6-{[6-Amino-3-(2-{1-[(2S)-2-methoxypropanoyl]piperidin-4-yl}ethyl)-3H-purin-8-yl]thio}-1,3-benzodioxole-5-carbonitrile] | 36.0 |
| N#Cc1cc2c(cc1Sc1nc3c(N)ncn(CCC4CCN(C(=O)C5CC5(F)F)CC4)c-3n1)OCO2 (stereo not drawn) [compound 40, 6-{[6-Amino-3-(2-{1-[(2,2-difluorocyclopropyl)carbonyl]piperidin-4-yl}ethyl)-3H-purin-8-yl]thio}-1,3-benzodioxole-5-carbonitrile] | 33.0 |

Same assay, conditions: BODIPY-GM 10 nM, Hsp90 30 nM, overnight at room temperature; read-out: GM displacement from purified Hsp90 measured by FP IC 50

| Compound | pIC50 |
| --- | --- |
| CO[C@H](C)C(=O)N1CCC(CCn2c(Sc3cc4c(cc3Br)OCCO4)nc3c(N)ncnc32)CC1 [compound 7, 8-[(7-Bromo-2,3-dihydro-1,4-benzodioxin-6-yl)thio]-9-(2-{1-[(2R)-2-methoxypropanoyl]piperidin-4-yl}ethyl)-9H-purin-6-amine] | 7.02 |
| Nc1ncnc2c1nc(Sc1cc3c(cc1Br)OCCO3)n2CCC1CCN(C(=O)C2CC2(F)F)CC1 (stereo not drawn) [compound 8, 8-[(7-Bromo-2,3-dihydro-1,4-benzodioxin-6-yl)thio]-9-(2-{1-[(2,2-difluorocyclopropyl)carbonyl]piperidin-4-yl}ethyl)-9H-purin-6-amine] | 7.05 |
| CS(=O)(=O)N1CCCCC1CCn1c(Sc2cc3c(cc2Br)OCCO3)nc2c(N)ncnc21 (stereo not drawn) [compound 10, 8-[(7-Bromo-2,3-dihydro-1,4-benzodioxin-6-yl)thio]-9-{2-[1-(methylsulfonyl)piperidin-2-yl]ethyl}-9H-purin-6-amine] | 6.80 |
| CS(=O)(=O)N1CCCC(CCn2c(Sc3cc4c(cc3Br)OCCO4)nc3c(N)ncnc32)C1 (stereo not drawn) [compound 12, 8-[(7-Bromo-2,3-dihydro-1,4-benzodioxin-6-yl)thio]-9-{2-[1-(methylsulfonyl)piperidin-3-yl]ethyl}-9H-purin-6-amine] | 7.19 |
| CC(C)C(=O)N1CCC(CCn2c(Sc3cc4c(cc3Br)OCCO4)nc3c(N)ncnc32)CC1 [compound 23, 8-[(7-Bromo-2,3-dihydro-1,4-benzodioxin-6-yl)thio]-9-[2-(1-isobutyrylpiperidin-4-yl)ethyl]-9H-purin-6-amine] | 6.71 |
| CC(C)C(=O)N1CCC(CCn2c(Sc3cc4c(cc3Br)OCO4)nc3c(N)ncnc32)CC1 [compound 25, 8-[(6-Bromo-1,3-benzodioxol-5-yl)thio]-9-[2-(1-isobutyrylpiperidin-4-yl)ethyl]-9H-purin-6-amine] | 6.96 |
| CCN(CC)C(=O)CN1CCC(CCn2c(Sc3cc4c(cc3Br)OCCO4)nc3c(N)ncnc32)CC1 [compound 27, 2-[4-(2-{6-Amino-8-[(7-bromo-2,3-dihydro-1,4-benzodioxin-6-yl)thio]-9H-purin-9-yl}ethyl)piperidin-1-yl]-N,N-diethylacetamide] | 6.96 |
| Nc1ncnc2c1nc(Sc1cc3c(cc1Br)OCO3)n2CCn1c(=O)n2n(c1=O)CC=CC2 [compound 29, 2-(2-{6-Amino-8-[(6-bromo-1,3-benzodioxol-5-yl)thio]-9H-purin-9-yl}ethyl)-5,8-dihydro-1H-[1,2,4]triazolo[1,2-a]pyridazine-1,3(2H)-dione] | 5.74 |
| Nc1ncnc2c1nc(Sc1cc3c(cc1Br)OCO3)n2CCCn1c(=O)n2n(c1=O)CC=CC2 [compound 31] | 6.05 |
| COCC(=O)N1CCC(CCn2c(Sc3cc4c(cc3C#N)OCO4)nc3c(N)ncnc32)CC1 [compound 33, 6-[(6-Amino-9-{2-[1-(methoxyacetyl)piperidin-4-yl]ethyl}-9H-purin-8-yl)thio]-1,3-benzodioxole-5-carbonitrile] | 6.52 |
| CO[C@H](C)C(=O)N1CCC(CCn2c(Sc3cc4c(cc3C#N)OCO4)nc3c(N)ncnc32)CC1 [compound 35, 6-{[6-Amino-9-(2-{1-[(2R)-2-methoxypropanoyl]piperidin-4-yl}ethyl)-9H-purin-8-yl]thio}-1,3-benzodioxole-5-carbonitrile] | 6.30 |
| CO[C@@H](C)C(=O)N1CCC(CCn2c(Sc3cc4c(cc3C#N)OCO4)nc3c(N)ncnc32)CC1 [compound 37, 6-{[6-Amino-9-(2-{1-[(2S)-2-methoxypropanoyl]piperidin-4-yl}ethyl)-9H-purin-8-yl]thio}-1,3-benzodioxole-5-carbonitrile] | 6.26 |
| N#Cc1cc2c(cc1Sc1nc3c(N)ncnc3n1CCC1CCN(C(=O)C3CC3(F)F)CC1)OCO2 (stereo not drawn) [compound 39, 6-{[6-Amino-9-(2-{1-[(2,2-difluorocyclopropyl)carbonyl]piperidin-4-yl}ethyl)-9H-purin-8-yl]thio}-1,3-benzodioxole-5-carbonitrile] | 6.70 |
| COCCC(=O)N1CCC(CCn2c(Sc3cc4c(cc3C#N)OCO4)nc3c(N)ncnc32)CC1 [compound 41, 6-[(6-Amino-9-{2-[1-(3-methoxypropanoyl)piperidin-4-yl]ethyl}-9H-purin-8-yl)thio]-1,3-benzodioxole-5-carbonitrile] | 6.32 |
| COCCOCC(=O)N1CCC(CCn2c(Sc3cc4c(cc3C#N)OCO4)nc3c(N)ncnc32)CC1 [compound 42, 6-{[6-Amino-9-(2-{1-[(2-methoxyethoxy)acetyl]piperidin-4-yl}ethyl)-9H-purin-8-yl]thio}-1,3-benzodioxole-5-carbonitrile] | 6.30 |
| CO[C@@H](C)C(=O)N1CCC(CCn2c(Sc3cc4c(cc3C#N)OCCO4)nc3c(N)ncnc32)CC1 [compound 43, 7-{[6-Amino-9-(2-{1-[(2S)-2-methoxypropanoyl]piperidin-4-yl}ethyl)-9H-purin-8-yl]thio}-2,3-dihydro-1,4-benzodioxine-6-carbonitrile] | 6.49 |

Source: patent publication US20100292255A1, “Therapeutic Compounds and Their Use in Treating Diseases and Disorders” (Myriad Pharmaceuticals, Inc., priority 2007, published 2010)
